# In the supplement of paper PMC10307832:
# Compound: CC(C)C[C@@H](C(=O)N[C@H](C(=O)OC1CCCC1)c1ccccc1)[C@H](O)C(=O)NO [Tosedostat] + N=C(N)NC(=N)NCCc1ccccc1 [Phenformin] (partner 250 µM)
# Assay: relative viability (nuclei count vs DMSO), 5 days (fraction); higher = more cells survive
# Details: first compound 0.02 µM
# In short: (§1)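 Relative viability was taken as the ratio of nuclei in treated wells to nuclei in vehicle wells. Lung cancer cell lines in 1536-well plates received compounds by pin tool one day after seeding, either one drug alone or a fixed anchor-drug dose plus five library-drug doses (not always all listed) in √10 steps. Nuclei were counted on 4× images after 5 days of treatment, and values are medians of duplicate plates.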
row,Cell Line,relative viability
1,NCI-H1755,0.599
2,NCI-H838,0.489
3,LK-2,0.38
4,NCI-H2347,0.384
5,NCI-H2342,0.513
6,SK-MES-1,0.696
7,H3255,0.361
8,COR-L23,0.486
9,COR-L 105,0.517
10,LU99A,0.925
11,ChaGo-K-1,0.435
12,NCI-H2170,0.409
13,NCI-H460,0.551
14,HOP-62,0.663
15,HCC-44,0.19
16,SW 900,0.496
17,LXF-289,0.495

row,Cell Line,relative viability
1,BEN,0.263
2,HARA,0.505
3,HCC-78,0.644
4,NCI-H647,0.56
5,LCLC-97TM1,0.402
6,NCI-H2126,0.492
7,A-427,0.322
8,NCI-H650,0.497
9,RERF-LC-KJ,0.406
10,NCI-H1915,0.374
11,NCI-H661,0.259
12,NCI-H441,0.861
13,NCI-H1975,0.4
14,NCI-H1395,0.418
15,201T,0.425
16,NCI-H2023,0.397
17,HCC-827,0.401

# Same assay, conditions: first compound 0.06325 µM
row,Cell Line,relative viability
1,NCI-H1755,0.574
2,NCI-H838,0.56
3,LK-2,0.529
4,NCI-H2347,0.439
5,NCI-H2342,0.733
6,SK-MES-1,0.686
7,H3255,0.369
8,COR-L23,0.386
9,COR-L 105,0.465
10,LU99A,0.903
11,ChaGo-K-1,0.522
12,NCI-H2170,0.424
13,NCI-H460,0.473
14,HOP-62,0.615
15,HCC-44,0.221
16,SW 900,0.606
17,LXF-289,0.493

row,Cell Line,relative viability
1,BEN,0.251
2,HARA,0.383
3,HCC-78,0.68
4,NCI-H647,0.506
5,LCLC-97TM1,0.433
6,NCI-H2126,0.535
7,A-427,0.393
8,NCI-H650,0.478
9,RERF-LC-KJ,0.395
10,NCI-H1915,0.366
11,NCI-H661,0.259
12,NCI-H441,0.833
13,NCI-H1975,0.401
14,NCI-H1395,0.424
15,201T,0.445
16,NCI-H2023,0.38
17,HCC-827,0.443

# Same assay, conditions: first compound 0.2 µM
row,Cell Line,relative viability
1,NCI-H1755,0.571
2,NCI-H838,0.519
3,LK-2,0.455
4,NCI-H2347,0.55
5,NCI-H2342,0.558
6,SK-MES-1,0.663
7,H3255,0.386
8,COR-L23,0.415
9,COR-L 105,0.447
10,LU99A,0.821
11,ChaGo-K-1,0.487
12,NCI-H2170,0.381
13,NCI-H460,0.505
14,HOP-62,0.685
15,HCC-44,0.183
16,SW 900,0.478
17,LXF-289,0.479

row,Cell Line,relative viability
1,BEN,0.269
2,HARA,0.433
3,HCC-78,0.637
4,NCI-H647,0.45
5,LCLC-97TM1,0.445
6,NCI-H2126,0.477
7,A-427,0.376
8,NCI-H650,0.435
9,RERF-LC-KJ,0.461
10,NCI-H1915,0.365
11,NCI-H661,0.312
12,NCI-H441,0.569
13,NCI-H1975,0.412
14,NCI-H1395,0.419
15,201T,0.461
16,NCI-H2023,0.382
17,HCC-827,0.397

# Same assay, conditions: first compound 0.6325 µM
row,Cell Line,relative viability
1,NCI-H1755,0.602
2,NCI-H838,0.659
3,LK-2,0.259
4,NCI-H2347,0.267
5,NCI-H2342,0.494
6,SK-MES-1,0.568
7,H3255,0.407
8,COR-L23,0.383
9,COR-L 105,0.399
10,LU99A,0.641
11,ChaGo-K-1,0.412
12,NCI-H2170,0.396
13,NCI-H460,0.426
14,HOP-62,0.569
15,HCC-44,0.111
16,SW 900,0.367
17,LXF-289,0.495

row,Cell Line,relative viability
1,BEN,0.253
2,HARA,0.326
3,HCC-78,0.671
4,NCI-H647,0.434
5,LCLC-97TM1,0.403
6,NCI-H2126,0.489
7,A-427,0.301
8,NCI-H650,0.442
9,RERF-LC-KJ,0.364
10,NCI-H1915,0.35
11,NCI-H661,0.304
12,NCI-H441,0.61
13,NCI-H1975,0.342
14,NCI-H1395,0.41
15,201T,0.428
16,NCI-H2023,0.351
17,HCC-827,0.355

# Same assay, conditions: first compound 2 µM
row,Cell Line,relative viability
1,NCI-H1755,0.406
2,NCI-H838,0.711
3,LK-2,0.347
4,NCI-H2347,0.275
5,NCI-H2342,0.442
6,SK-MES-1,0.54
7,H3255,0.402
8,COR-L23,0.401
9,COR-L 105,0.363
10,LU99A,0.547
11,ChaGo-K-1,0.359
12,NCI-H2170,0.408
13,NCI-H460,0.48
14,HOP-62,0.437
15,HCC-44,0.117
16,SW 900,0.417
17,LXF-289,0.399

row,Cell Line,relative viability
1,BEN,0.273
2,HARA,0.35
3,HCC-78,0.752
4,NCI-H647,0.39
5,LCLC-97TM1,0.439
6,NCI-H2126,0.462
7,A-427,0.323
8,NCI-H650,0.405
9,RERF-LC-KJ,0.312
10,NCI-H1915,0.358
11,NCI-H661,0.265
12,NCI-H441,0.713
13,NCI-H1975,0.375
14,NCI-H1395,0.446
15,201T,0.445
16,NCI-H2023,0.359
17,HCC-827,0.301

# Compound: CC1=NN=C(O1)C2=NN=C(C=C2)N3CCC(CC3)OC4=C(C=CC(=C4)F)Cl + N=C(N)NC(=N)NCCc1ccccc1 [Phenformin] (partner 250 µM)
# Assay: as above
# Details: first compound 0.253 µM
# In short: as §1
row,Cell Line,relative viability
1,NCI-H1755,0.567
2,NCI-H838,0.588
3,LK-2,0.576
4,NCI-H2342,0.474
5,SK-MES-1,0.58
6,H3255,0.372
7,COR-L23,0.423
8,COR-L 105,0.513
9,LU99A,0.885
10,ChaGo-K-1,0.471
11,NCI-H2170,0.336
12,NCI-H460,0.298
13,HOP-62,0.592
14,HCC-44,0.267
15,LXF-289,0.509
16,BEN,0.25

row,Cell Line,relative viability
1,HARA,0.306
2,HCC-78,0.619
3,NCI-H647,0.441
4,LCLC-97TM1,0.501
5,NCI-H2126,0.486
6,A-427,0.285
7,NCI-H650,0.478
8,RERF-LC-KJ,0.389
9,NCI-H1915,0.377
10,NCI-H661,0.282
11,NCI-H441,0.715
12,NCI-H1395,0.453
13,201T,0.38
14,NCI-H2023,0.401
15,HCC-827,0.388

# Same assay, conditions: first compound 0.8 µM
row,Cell Line,relative viability
1,NCI-H1755,0.565
2,NCI-H838,0.434
3,LK-2,0.433
4,NCI-H2347,0.382
5,NCI-H2342,0.503
6,SK-MES-1,0.532
7,H3255,0.316
8,COR-L23,0.385
9,COR-L 105,0.475
10,LU99A,0.822
11,ChaGo-K-1,0.373
12,NCI-H2170,0.291
13,NCI-H460,0.309
14,HOP-62,0.352
15,HCC-44,0.167
16,LXF-289,0.393

row,Cell Line,relative viability
1,BEN,0.265
2,HARA,0.211
3,HCC-78,0.59
4,NCI-H647,0.446
5,LCLC-97TM1,0.396
6,NCI-H2126,0.507
7,NCI-H650,0.444
8,RERF-LC-KJ,0.434
9,NCI-H1915,0.287
10,NCI-H661,0.308
11,NCI-H441,0.498
12,NCI-H1975,0.33
13,NCI-H1395,0.398
14,201T,0.436
15,NCI-H2023,0.362
16,HCC-827,0.258

# Same assay, conditions: first compound 2.53 µM
row,Cell Line,relative viability
1,NCI-H1755,0.523
2,NCI-H838,0.515
3,LK-2,0.661
4,NCI-H2347,0.493
5,NCI-H2342,0.492
6,SK-MES-1,0.475
7,H3255,0.354
8,COR-L23,0.425
9,COR-L 105,0.568
10,LU99A,0.821
11,ChaGo-K-1,0.545
12,NCI-H2170,0.355
13,NCI-H460,0.291
14,HOP-62,0.411
15,HCC-44,0.178
16,SW 900,0.827
17,LXF-289,0.504

row,Cell Line,relative viability
1,BEN,0.267
2,HARA,0.334
3,HCC-78,0.541
4,NCI-H647,0.408
5,LCLC-97TM1,0.427
6,NCI-H2126,0.53
7,A-427,0.278
8,NCI-H650,0.43
9,RERF-LC-KJ,0.466
10,NCI-H1915,0.332
11,NCI-H661,0.244
12,NCI-H441,0.699
13,NCI-H1975,0.421
14,NCI-H1395,0.439
15,201T,0.46
16,NCI-H2023,0.387
17,HCC-827,0.354

# Same assay, conditions: first compound 8 µM
row,Cell Line,relative viability
1,NCI-H1755,0.56
2,NCI-H838,0.504
3,LK-2,0.38
4,NCI-H2347,0.359
5,NCI-H2342,0.362
6,SK-MES-1,0.414
7,H3255,0.398
8,COR-L23,0.363
9,COR-L 105,0.642
10,LU99A,0.71
11,ChaGo-K-1,0.381
12,NCI-H2170,0.323
13,NCI-H460,0.258
14,HOP-62,0.349
15,HCC-44,0.157
16,SW 900,0.562
17,LXF-289,0.465

row,Cell Line,relative viability
1,BEN,0.301
2,HARA,0.266
3,HCC-78,0.497
4,NCI-H647,0.2
5,LCLC-97TM1,0.437
6,NCI-H2126,0.528
7,A-427,0.258
8,NCI-H650,0.414
9,RERF-LC-KJ,0.392
10,NCI-H1915,0.243
11,NCI-H661,0.277
12,NCI-H441,0.619
13,NCI-H1975,0.387
14,NCI-H1395,0.429
15,201T,0.443
16,NCI-H2023,0.324
17,HCC-827,0.36

# Compound: CC(C)C[C@@H](C(=O)N[C@H](C(=O)OC1CCCC1)c1ccccc1)[C@H](O)C(=O)NO [Tosedostat] + COc1cccc2cc(-c3nc([C@H]4CC[C@H](C(=O)O)CC4)n4ncnc(N)c34)[nH]c12 [OSI-027] (partner 0.5 µM)
# Assay: as above
# Details: first compound 0.02 µM
# In short: as §1
row,Cell Line,relative viability
1,NCI-H1755,0.743
2,NCI-H838,0.383
3,LK-2,0.174
4,NCI-H2347,0.364
5,NCI-H2342,0.627
6,SK-MES-1,0.532
7,H3255,0.67
8,COR-L23,0.965
9,COR-L 105,0.605
10,LU99A,0.324
11,ChaGo-K-1,0.54
12,NCI-H2170,0.749
13,NCI-H460,0.817
14,HOP-62,0.836
15,HCC-44,0.538
16,SW 900,0.619
17,LXF-289,0.904
18,BEN,0.298
19,HARA,0.695
